Reference: patent publication US9615577B2, “Herbicidally active cyclic dione compounds, or derivatives therefor, substituted by a phenyl which has an alkynyl-containing substituent” (Syngenta Limited, priority 2012, dated 2017)

Assays:
Type in all cases: in vivo
[1] = system: Alopecurus myosuroides (ALOMY); experiment: Test 1A glasshouse assay for herbicidal activity, post-emergence; settings: 312 h, evaluated after 13 days, read-out: percentage phytotoxicity ALOMY
How it was run: (§1)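 Test plants grew from seed in standard soil under controlled glasshouse conditions (24/16 °C, 14 h light, 65% humidity) and received an aqueous acetone (50:50) spray with 0.5% Tween 20, either one day after sowing or after eight days. Damage was rated visually as percent phytotoxicity 13 days later.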

[2] = system: Amaranthus retroflexus (AMARE); experiment: as above; settings: 312 h, evaluated after 13 days, read-out: percentage phytotoxicity AMARE
How it was run: as §1

[3] = system: Echinochloa crus-galli (ECHCG); experiment: as above; settings: 312 h, evaluated after 13 days, read-out: percentage phytotoxicity ECHCG
How it was run: as §1

[4] = system: Setaria faberi (SETFA); experiment: as above; settings: 312 h, evaluated after 13 days, read-out: percentage phytotoxicity SETFA
How it was run: as §1

[5] = system: Brassica napus (BRSNN, rape); experiment: Test 1B glasshouse assay for herbicidal activity, pre-emergence; settings: 480 h, 20 DAA, read-out: percentage phytotoxicity BRSNN
Method: (§2) Seeds of a variety of monocotyledonous and dicotyledonous test plants are sown in standard soil in pots. The plants are cultivated for one day (for pre-emergence) or for about 12 days (range=10-13 days) (for post-emergence) under controlled conditions in a glasshouse (warm climate species at 24/18° C., cool climate species at 20/16° C., both at day/night; 16 hours light; 65% humidity).
(§3) An “instant formulation”, known as the “IF50”, containing 50 g/liter (i.e. 5% w/v) of the “technical” (i.e. unformulated) active ingredient is prepared by dissolving the active ingredient in a mixture of organic solvents and emulsifier, details of which are provided in the Table below. This IF50 is then mixed with a small, variable amount of acetone to aid dissolution, before addition of a 0.2% v/v aqueous solution of the adjuvant X-77 (which is a mixture of alkyl aryl polyoxyethylene glycols and free fatty acids in isopropanol, CAS Registry number 11097-66-8), as the aqueous diluent, to form an aqueous spray solution which contains a predetermined concentration of the active ingredient (which varies depending on the application rate of the active ingredient to the plants) and 0.2% v/v of the adjuvant X-77. This aqueous spray solution is then sprayed onto the plants, after one day's cultivation (for pre-emergence) or after about 12 days' cultivation (for post-emergence).
(§4) The test plants are then grown on, in a glasshouse (greenhouse) under controlled conditions (at either 24/18° C. or 20/16° C. (day/night) as mentioned above; 16 hours light; 65% humidity) and are watered twice daily. Either 15 days after application of the herbicide (15 DAA) (for post-emergence), or 20 days after application of the herbicide (20 DAA) (for pre-emergence), the test plants are evaluated visually, and an assessed percentage phytotoxicity score is given for each herbicidal application on each plant species (where 100%=total damage to plant; 0%=no damage to plant).
(§5) Cool climate crop plants: Triticum aestivum (TRZAW, winter wheat), Brassica napus (BRSNN, rape, also called oilseed rape or rapeseed), Beta vulgaris (BEAVA, sugar beet).

[6] = system: Triticum aestivum (TRZAW, winter wheat); experiment: as above; settings: 480 h, 20 DAA, read-out: percentage phytotoxicity TRZAW
Method: as §2, §3, §4, §5

[7] = system: Glycine max (GLXMA, soybean); experiment: Test 1B glasshouse assay for herbicidal activity, post-emergence; settings: 360 h; for plant injury at 30 g/ha: 30 g/ha application rate; for plant injury at 60 g/ha: 60 g/ha application rate; for plant injury at 125 g/ha: 125 g/ha application rate
Method: as §2, §3, §4
Warm climate crop plants: Glycine max (GLXMA, soybean).

[8] = system: Alopecurus myosuroides (ALOMY); experiment: as above; settings: 360 h; for pest or weed control at 30 g/ha: 30 g/ha application rate; for pest or weed control at 60 g/ha: 60 g/ha application rate; for pest or weed control at 125 g/ha: 125 g/ha application rate
Method: as §2, §3, §4
(§6) Cool climate (“cool season”) grassy monocotyledonous weeds: Alopecurus myosuroides (ALOMY), Avena fatua (AVEFA), Lolium perenne (LOLPE).

[9] = system: Avena fatua (AVEFA); experiment: as above; settings: 360 h; for pest or weed control at 30 g/ha: 30 g/ha application rate; for pest or weed control at 60 g/ha: 60 g/ha application rate; for pest or weed control at 125 g/ha: 125 g/ha application rate
Method: as §2, §3, §4, §6

[10] = system: Lolium perenne (LOLPE); experiment: as above; settings: 360 h; for pest or weed control at 30 g/ha: 30 g/ha application rate; for pest or weed control at 60 g/ha: 60 g/ha application rate; for pest or weed control at 125 g/ha: 125 g/ha application rate
Method: as §2, §3, §4, §6

[11] = system: Digitaria sanguinalis (DIGSA); experiment: as above; settings: 360 h; for pest or weed control at 30 g/ha: 30 g/ha application rate; for pest or weed control at 60 g/ha: 60 g/ha application rate; for pest or weed control at 125 g/ha: 125 g/ha application rate
Method: as §2, §3, §4
(§7) Warm climate (“warm season”) grassy monocotyledonous weeds: Setaria faberi (SETFA), SORVU (Sorghum bicolor (L.) Moench ssp. Bicolor, or Sorghum vulgare Pers.), Digitaria sanguinalis (DIGSA), Echinochloa crus-galli (ECHCG), and Brachiaria plantaginea (BRAPL).

[12] = system: SORVU (Sorghum bicolor (L.) Moench ssp. Bicolor, or Sorghum vulgare Pers.); experiment: as above; settings: 360 h; for pest or weed control at 30 g/ha: 30 g/ha application rate; for pest or weed control at 60 g/ha: 60 g/ha application rate; for pest or weed control at 125 g/ha: 125 g/ha application rate
Method: as §2, §3, §4, §7

[13] = system: Setaria faberi (SETFA); experiment: as above; settings: 360 h; for pest or weed control at 30 g/ha: 30 g/ha application rate; for pest or weed control at 60 g/ha: 60 g/ha application rate; for pest or weed control at 125 g/ha: 125 g/ha application rate
Method: as §2, §3, §4, §7

[14] = system: Echinochloa crus-galli (ECHCG); experiment: as above; settings: Echinochloa crus-galli; for pest or weed control at 30 g/ha: 30 g/ha application rate; for pest or weed control at 60 g/ha: 60 g/ha application rate; for pest or weed control at 125 g/ha: 125 g/ha application rate
Method: as §2, §3, §4, §7
Note: The herbicidal activity data (e.g. post-emergence) shown above in Biological Example 1B for Comparator compounds X-9 and X-10 is thought likely to have been measured some years ago, probably using a variant of the above-described test method. Also, for the post-emergence activity of X-9 and X-10 it is not currently known exactly how many days after application of the herbicide the phytotoxicity on the plants was measured.

## CC#Cc1cc(C)c(C2C(=O)C3CCC(C3)C2=O)c(C)c1 (centres unmarked) [Compound A-5]
[1]
  pest or weed control at 30 g/ha: 80%
  pest or weed control at 250 g/ha: 100%
[2]
  pest or weed control at 30 g/ha: 10%
  pest or weed control at 250 g/ha: 0%
[3]
  pest or weed control at 30 g/ha: 100%
  pest or weed control at 250 g/ha: 100%
[4]
  pest or weed control at 30 g/ha: 70%
  pest or weed control at 250 g/ha: 100%
[5]
  plant injury at 500 g/ha: 90%
[6]
  plant injury at 500 g/ha: 20%
[7]
  plant injury at 30 g/ha: 10%
  plant injury at 60 g/ha: 20%
  plant injury at 125 g/ha: 30%
[7]; 500 g/ha application rate
  plant injury at 500 g/ha: 40%
[8]
  pest or weed control at 30 g/ha: 70%
  pest or weed control at 60 g/ha: 80%
  pest or weed control at 125 g/ha: 80%
[8]; 500 g/ha application rate
  pest or weed control at 500 g/ha: 90%
[9]
  pest or weed control at 30 g/ha: 30%
  pest or weed control at 60 g/ha: 30%
  pest or weed control at 125 g/ha: 80%
[9]; 500 g/ha application rate
  pest or weed control at 500 g/ha: 80%
[10]
  pest or weed control at 30 g/ha: 30%
  pest or weed control at 60 g/ha: 70%
  pest or weed control at 125 g/ha: 80%
[10]; 500 g/ha application rate
  pest or weed control at 500 g/ha: 80%
[11]
  pest or weed control at 30 g/ha: 90%
  pest or weed control at 60 g/ha: 100%
  pest or weed control at 125 g/ha: 100%
[11]; 500 g/ha application rate
  pest or weed control at 500 g/ha: 100%
[12]
  pest or weed control at 30 g/ha: 70%
  pest or weed control at 60 g/ha: 80%
  pest or weed control at 125 g/ha: 100%
[12]; 500 g/ha application rate
  pest or weed control at 500 g/ha: 100%
[13]
  pest or weed control at 30 g/ha: 80%
  pest or weed control at 60 g/ha: 90%
  pest or weed control at 125 g/ha: 100%
[13]; 500 g/ha application rate
  pest or weed control at 500 g/ha: 100%
[14]
  pest or weed control at 30 g/ha: 100%
  pest or weed control at 60 g/ha: 100%
  pest or weed control at 125 g/ha: 100%
[14]; 500 g/ha application rate
  pest or weed control at 500 g/ha: 100%

## CC#Cc1ccc(C2C(=O)C3CCC(C3)C2=O)c(C)c1 (single isomer, unassigned) [Compound A-2]
[1]
  pest or weed control at 250 g/ha: 90%
[2]
  pest or weed control at 250 g/ha: 0%
[3]
  pest or weed control at 250 g/ha: 100%
[4]
  pest or weed control at 250 g/ha: 100%
[5]
  plant injury at 500 g/ha: 40%
[6]
  plant injury at 500 g/ha: 60%
[7]
  plant injury at 60 g/ha: 40%
[8]
  pest or weed control at 60 g/ha: 90%
[9]
  pest or weed control at 60 g/ha: 80%
[10]
  pest or weed control at 60 g/ha: 80%
[11]
  pest or weed control at 60 g/ha: 100%
[12]
  pest or weed control at 60 g/ha: 80%
[13]
  pest or weed control at 60 g/ha: 100%
[14]
  pest or weed control at 60 g/ha: 100%

## CC#Cc1cc(C)c(C2=C(OC(=O)OC)CC(c3ccccn3)CC2=O)c(C)c1 (centres unmarked) [Compound A-14]
[1]
  pest or weed control at 250 g/ha: 100%
[2]
  pest or weed control at 250 g/ha: 20%
[3]
  pest or weed control at 250 g/ha: 100%
[4]
  pest or weed control at 250 g/ha: 100%
[5]; 250 g/ha
  plant injury at 250 g/ha: 60%
[6]; 250 g/ha
  plant injury at 250 g/ha: 40%
[7]
  plant injury at 30 g/ha: 40%
  plant injury at 125 g/ha: 70%
[8]
  pest or weed control at 30 g/ha: 70%
  pest or weed control at 125 g/ha: 80%
[9]
  pest or weed control at 30 g/ha: 20%
  pest or weed control at 125 g/ha: 60%
[10]
  pest or weed control at 30 g/ha: 70%
  pest or weed control at 125 g/ha: 80%
[11]
  pest or weed control at 30 g/ha: 80%
  pest or weed control at 125 g/ha: 100%
[12]
  pest or weed control at 30 g/ha: 80%
  pest or weed control at 125 g/ha: 100%
[13]
  pest or weed control at 30 g/ha: 80%
  pest or weed control at 125 g/ha: 90%
[14]
  pest or weed control at 30 g/ha: 80%
  pest or weed control at 125 g/ha: 100%

## Cc1cc(C#CCl)cc(C)c1C1C(=O)CC(CC2CCOCC2)CC1=O (centres unmarked) [Compound A-8]
[1]
  pest or weed control at 250 g/ha: 80%
[2]
  pest or weed control at 250 g/ha: 40%
[3]
  pest or weed control at 250 g/ha: 100%
[4]
  pest or weed control at 250 g/ha: 90%
[7]
  plant injury at 30 g/ha: 50%
[8]
  pest or weed control at 30 g/ha: 80%
[9]
  pest or weed control at 30 g/ha: 70%
[10]
  pest or weed control at 30 g/ha: 40%
[11]
  pest or weed control at 30 g/ha: 100%
[12]
  pest or weed control at 30 g/ha: 90%
[13]
  pest or weed control at 30 g/ha: 90%
[14]
  pest or weed control at 30 g/ha: 100%

## CC#Cc1cc(C)c(C2C(=O)CC(CCSC)CC2=O)c(C)c1 (centres unmarked) [Compound A-21, 2-(2,6-Dimethyl-4-prop-1-ynyl-phenyl)-5-(2-methylsulfanyl-ethyl)cyclohexane-1,3-dione]
[1]
  pest or weed control at 30 g/ha: 50%
  pest or weed control at 250 g/ha: 90%
[2]
  pest or weed control at 30 g/ha: 80%
  pest or weed control at 250 g/ha: 20%
[3]
  pest or weed control at 30 g/ha: 80%
  pest or weed control at 250 g/ha: 100%
[4]
  pest or weed control at 30 g/ha: 70%
  pest or weed control at 250 g/ha: 100%

## CC#Cc1cc(Cl)c(C2C(=O)CC3(CCOCC3)CC2=O)c(OC)c1 [Compound A-20, 9-(2-Chloro-6-methoxy-4-prop-1-ynyl-phenyl)-3-oxa-spiro[5.5]undecane-8,10-dione]
[1]; 8 g/ha
  pest or weed control at 8 g/ha: 90%
[1]
  pest or weed control at 30 g/ha: 100%
  pest or weed control at 250 g/ha: 100%
[2]; 8 g/ha
  pest or weed control at 8 g/ha: 10%
[2]
  pest or weed control at 30 g/ha: 80%
  pest or weed control at 250 g/ha: 80%
[3]; 8 g/ha
  pest or weed control at 8 g/ha: 100%
[3]
  pest or weed control at 30 g/ha: 100%
  pest or weed control at 250 g/ha: 100%
[4]; 8 g/ha
  pest or weed control at 8 g/ha: 90%
[4]
  pest or weed control at 30 g/ha: 100%
  pest or weed control at 250 g/ha: 100%
